Measurements as given in patent publication US20210355121A1, “FUSED TRICYCLIC KRAS INHIBITORS” (Incyte Corporation, priority 2020, published 2021).
Where two headings read alike, the source gives them in different places.

What was measured:
[1] = test system: MIA PaCa-2 (KRAS G12C) cells; assay: KRAS_G12C cellular pERK HTRF assay; assay type: cell-based, human; conditions: phospho-ERK1/2 HTRF, 4 hours incubation, read-out: G12C_pERK (KRAS_G12C pERK assay IC50)
Procedure: MIA PaCa-2 (KRAS G12C; ATCC® CRL-1420), A427 (KRAS G12D; ATCC® HTB53), HPAF-II (KRAS G12D; ATCC® CRL-1997) and NCI-H838 (KRAS WT; ATCC® CRL-5844) cells are purchased from ATCC and maintained in RPMI 1640 media supplemented with 10% FBS (Gibco/Life Technologies). The cells are plated at 5000 cells per well (8 uL) into Greiner 384-well low volume, flat-bottom, tissue culture treated white plates and incubated overnight at 37° C., 5% CO2. The next morning, test compound stock solutions are diluted in media at 3× the final concentration, and 4 uL are added to the cells. The plate is mixed by gentle rotation for 30 seconds (250 rpm) at room temperature. The cells are incubated with the KRAS G12C and G12D compounds for 4 hours or 2 hours respectively at 37° C., 5% CO2.
4 uL of 4× lysis buffer with blocking reagent (1:25) (Cisbio) are added to each well and plates are rotated gently (300 rpm) for 30 minutes at room temperature. 4 uL per well of Cisbio anti Phospho-ERK 1/2 d2 is mixed with anti Phospho-ERK 1/2 Cryptate (1:1) are added to each well, mixed by rotation and incubated overnight in the dark at room temperature. Plates are read on the Pherastar plate reader at 665 nm and 620 nm wavelengths. IC50 determination is performed by fitting the curve of inhibitor percent inhibition versus the log of the inhibitor concentration using the GraphPad Prism 7 software.

[2] = target: KRAS G12C (Homo sapiens, UniProt P01116, G12C); assay: KRAS G12C GDP-GTP exchange assay (bodipy-GDP for GppNHp, with SOS1); assay type: biochemical; conditions: 2.5 nM bodipy-loaded KRAS G12C, 2 hours pre-incubation with inhibitor, 2 hours after GppNHp-SOS1; read-out: G12C_exchange (KRAS_G12C exchange assay IC50)
Procedure: The inhibitor potency of the exemplified compounds was determined in a fluorescence based guanine nucleotide exchange assay, which measures the exchange of bodipy-GDP (fluorescently labeled GDP) for GppNHp (Non-hydrolyzable GTP analog) to generate the active state of KRAS in the presence of SOS1 (guanine nucleotide exchange factor). Inhibitors were serially diluted in DMSO and a volume of 0.1 μL was transferred to the wells of a black low volume 384-well plate. 5 μL/well volume of bodipy-loaded KRAS G12C diluted to 5 nM in assay buffer (25 mM Hepes pH 7.5, 50 mM NaCl, 10 mM MgCl2 and 0.01% Brij-35) was added to the plate and pre-incubated with inhibitor for 2 hours at ambient temperature. Appropriate controls (enzyme with no inhibitor or with a G12C inhibitor (AMG-510)) were included on the plate. The exchange was initiated by the addition of a 5 μL/well volume containing 1 mM GppNHp and 300 nM SOS1 in assay buffer. The 10 μL/well reaction concentration of the bodipy-loaded KRAS G12C, GppNHp, and SOS1 were 2.5 nM, 500 uM, and 150 nM, respectively. The reaction plates were incubated at ambient temperature for 2 hours, a time estimated for complete GDP-GTP exchange in the absence of inhibitor. For the KRAS G12D and G12V mutants, similar guanine nucleotide exchange assays were used with 2.5 nM as final concentration for the bodipy loaded KRAS proteins and with 4 hours and 3 hours incubation after adding GppNHp-SOS1 mixture for G12D and G12V respectively. A cyclic peptide described to selectively bind G12D mutant (Sakamoto et al., BBRC 484.3 (2017), 605-611) or internal compounds with confirmed binding were used as positive controls in the assay plates. Fluorescence intensities were measured on a PheraStar plate reader instrument (BMG Labtech) with excitation at 485 nm and emission at 520 nm.
Either GraphPad prism or XLfit was used to analyze the data. The IC50 values were derived by fitting the data to a four parameter logistic equation producing a sigmoidal dose-response curve with a variable Hill coefficient. Prism equation: Y=Bottom+(Top−Bottom)/(1+10^((Log IC50−X)*Hill slope)); XLfit equation: Y=(A+((B−A)/(1+((X/C)^D)))) where X is the logarithm of inhibitor concentration and Y is the response.

Sequence of KRAS G12C (P01116 1-188 isoform P01116-2 G12C): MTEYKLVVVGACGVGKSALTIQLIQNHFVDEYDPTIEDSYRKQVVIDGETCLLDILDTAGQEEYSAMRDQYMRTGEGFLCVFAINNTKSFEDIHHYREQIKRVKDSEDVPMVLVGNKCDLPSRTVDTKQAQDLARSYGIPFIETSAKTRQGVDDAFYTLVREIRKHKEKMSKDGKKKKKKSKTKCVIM

SMILES	IC50 [1] [µM]	IC50 [2] [µM]	IC50 ([1]; Homo sapiens, MIA PaCa-2) [µM]
Cc1cc2c(nc(OC[C@@H]3CCCN3C)c3cnn([C@H]4CCN(C(=O)/C=C/CF)[C@H](CC#N)C4)c32)c(F)c1-c1cccc2cccc(C#N)c12 (single isomer, unassigned) [Example 51a]	–	≤ 0.1	≤ 0.1
CC#CC(=O)N1CC[C@H](n2ncc3c(O[C@@H](C)[C@@H]4CCCN4C)nc4c(F)c(-c5cccc6cccc(Cl)c56)c(Cl)cc4c32)C[C@H]1CC#N [Example 87, 2-((2S,4S)-1-(but-2-ynoyl)-4-(8-chloro-7-(8-chloronaphthalen-1-yl)-6-fluoro-4-((S)-1-((S)-1-methylpyrrolidin-2-yl)ethoxy)-1H-pyrazolo[4,3-c]quinolin-1-yl)piperidin-2-yl)acetonitrile]	–	≤ 0.1	≤ 0.1
C[C@H](Oc1nc2c(F)c(-c3cccc4cccc(Cl)c34)c(Cl)cc2c2c1cnn2[C@H]1CCN(C(=O)/C=C/CF)[C@H](CC#N)C1)[C@@H]1CCCN1C [Example 85, 2-((2S,4S)-4-(8-chloro-7-(8-chloronaphthalen-1-yl)-6-fluoro-4-((S)-1-((S)-1-methylpyrrolidin-2-yl)ethoxy)-1H-pyrazolo[4,3-c]quinolin-1-yl)-1-((E)-4-fluorobut-2-enoyl)piperidin-2-yl)acetonitrile]	–	≤ 0.1	≤ 0.1
C[C@H](Oc1nc2c(F)c(-c3cccc4cccc(Cl)c34)c(Cl)cc2c2c1cnn2[C@H]1CCN(C(=O)/C=C/CN(C)C)[C@H](CC#N)C1)[C@@H]1CCCN1C [Example 89, 2-((2S,4S)-4-(8-chloro-7-(8-chloronaphthalen-1-yl)-6-fluoro-4-((S)-1-((S)-1-methylpyrrolidin-2-yl)ethoxy)-1H-pyrazolo[4,3-c]quinolin-1-yl)-1-((E)-4-(dimethylamino)but-2-enoyl)piperidin-2-yl)acetonitrile]	–	≤ 0.1	≤ 0.1
C=C(F)C(=O)N1CC[C@H](n2ncc3c(O[C@@H](C)[C@@H]4CCCN4C)nc4c(F)c(-c5cccc6cccc(Cl)c56)c(Cl)cc4c32)C[C@H]1CC#N [Example 86, 2-((2S,4S)-4-(8-chloro-7-(8-chloronaphthalen-1-yl)-6-fluoro-4-((S)-1-((S)-1-methylpyrrolidin-2-yl)ethoxy)-1H-pyrazolo[4,3-c]quinolin-1-yl)-1-(2-fluoroacryloyl)piperidin-2-yl)acetonitrile]	–	≤ 0.1	≤ 0.1
COC/C=C/C(=O)N1CC[C@H](n2ncc3c(O[C@@H](C)[C@@H]4CCCN4C)nc4c(F)c(-c5cccc6cccc(Cl)c56)c(Cl)cc4c32)C[C@H]1CC#N [Example 88, 2-((2S,4S)-4-(8-chloro-7-(8-chloronaphthalen-1-yl)-6-fluoro-4-((S)-1-((S)-1-methylpyrrolidin-2-yl)ethoxy)-1H-pyrazolo[4,3-c]quinolin-1-yl)-1-((E)-4-methoxybut-2-enoyl)piperidin-2-yl)acetonitrile]	–	≤ 0.1	≤ 0.1
COC/C=C/C(=O)N1CC[C@H](n2ccc3c(OC[C@@H]4CCCN4C)nc4c(F)c(-c5c(C)c(C)cc6[nH]ncc56)c(Cl)cc4c32)C[C@H]1CC#N (single isomer, unassigned) [Example 47a]	–	≤ 0.1	≤ 0.1
Cc1cc2c(nc(N3CC(C)(N(C)C)C3)c3cnn([C@H]4CCN(C(=O)/C=C/CF)[C@H](CC#N)C4)c32)c(F)c1-c1cccc2cccc(C#N)c12 (single isomer, unassigned) [Example 58a]	–	≤ 0.1	≤ 0.1
COC/C=C/C(=O)N1CC[C@H](n2ncc3c(O[C@@H](C)[C@@H]4CCCN4C)nc4c(F)c(-c5c(C)c(C)cc6[nH]ncc56)c(C)cc4c32)C[C@H]1CC#N (single isomer, unassigned) [Example 70b]	–	≤ 0.1	≤ 0.1

Further lines, results first:

IC50 [1] [µM]	IC50 [2] [µM]	IC50 ([1]; Homo sapiens, MIA PaCa-2) [µM]	SMILES
≤ 0.1	≤ 0.1	–	C=CC(=O)N1CC[C@H](n2ncc3c(N4CC(N(C)C)C4)nc4c(F)c(-c5ccc(F)c6cccnc56)c(Cl)cc4c32)C[C@H]1CC#N (single isomer, unassigned) [Example 21b]
–	≤ 0.1	≤ 0.1	Cc1c(Cl)cc2[nH]ncc2c1-c1c(Cl)cc2c(nc(N3CC(C)(N(C)C)C3)c3cnn([C@H]4CCN(C(=O)/C=C/CF)[C@H](CC#N)C4)c32)c1F (single isomer, unassigned) [Example 13a]
–	≤ 0.1	≤ 0.1	C=CC(=O)N1CC[C@H](n2ncc3c(N4CC(C)(N(C)C)C4)nc4c(F)c(-c5c(C)c(Cl)cc6[nH]ncc56)c(Cl)cc4c32)C[C@H]1CC#N (single isomer, unassigned) [Example 16a]
–	≤ 0.1	≤ 0.1	CC#CC(=O)N1CC[C@H](n2ncc3c(N4CC(N(C)C)C4)nc4c(F)c(-c5cccc(Cl)c5Cl)c(Cl)cc4c32)C[C@H]1CC#N (single isomer, unassigned) [Example 26a]
–	≤ 0.1	≤ 0.1	C=CC(=O)N1CC[C@H](n2ncc3c(N4CC(N(C)C)C4)nc4c(F)c(-c5ccc(F)c6cccnc56)c(Cl)cc4c32)C[C@H]1CC#N (single isomer, unassigned) [Example 21a]
–	≤ 0.1	≤ 0.1	CC#CC(=O)N1CC[C@H](n2ncc3c(N4CC(N(C)C)C4)nc4c(F)c(-c5c(C)c(C)cc6[nH]ncc56)c(Cl)cc4c32)C[C@H]1CC#N (single isomer, unassigned) [Example 74a]
–	≤ 0.1	≤ 0.1	C=CC(=O)N1CC[C@H](n2ncc3c(N4CC(N(C)C)C4)nc4c(F)c(-c5c(C)c(Cl)cc6[nH]ncc56)c(Cl)cc4c32)C[C@H]1CC#N (single isomer, unassigned) [Example 3a]
–	≤ 0.1	≤ 0.1	CC#CC(=O)N1CC[C@H](n2ncc3c(N4CC(N(C)C)C4)nc4c(F)c(-c5c(C)c(Cl)cc6[nH]ncc56)c(Cl)cc4c32)C[C@H]1CC#N (single isomer, unassigned) [Example 9a]
–	≤ 0.1	≤ 0.1	COC/C=C/C(=O)N1CC[C@H](n2ncc3c(N4CC(C)(N(C)C)C4)nc4c(F)c(-c5c(C)c(Cl)cc6[nH]ncc56)c(Cl)cc4c32)C[C@H]1CC#N (single isomer, unassigned) [Example 12a]
–	≤ 0.1	≤ 0.1	Cc1c(Cl)cc2[nH]ncc2c1-c1c(Cl)cc2c(nc(N3CC(N(C)C)C3)c3cnn([C@H]4CCN(C(=O)/C=C/C(F)F)[C@H](CC#N)C4)c32)c1F (single isomer, unassigned) [Example 7a]
–	≤ 0.1	≤ 0.1	C=C(F)C(=O)N1CC[C@H](n2ncc3c(N4CC(N(C)C)C4)nc4c(F)c(-c5c(C)c(Cl)cc6[nH]ncc56)c(Cl)cc4c32)C[C@H]1CC#N (single isomer, unassigned) [Example 8a]
–	≤ 0.1	≤ 0.1	Cc1c(Cl)cc2[nH]ncc2c1-c1c(Cl)cc2c(nc(N3CC(N(C)C)C3)c3cnn([C@H]4CCN(C(=O)/C=C/CF)[C@H](CC#N)C4)c32)c1F (single isomer, unassigned) [Example 6a]
